Read-outs that look alike come from different tables or passages of the source.
What was measured:
mV1 S833A = mV1 S833A (Mus musculus, UniProt Q704Y3, S833A); experiment: Agonist activation, patch clamp, HEK293T; assay type: cell-based; settings: read-out: EC50_Capsaicin
mV1 M834A = mV1 M834A (Mus musculus, UniProt Q704Y3, M834A); experiment: Agonist activation, patch clamp, HEK293T; assay type: cell-based; settings: read-out: EC50_Capsaicin
mV1_630 (ANAP) = mV1_630 (ANAP) (Mus musculus, UniProt Q704Y3, S630X); experiment: Agonist activation of ANAP-incorporated channel, patch clamp; assay type: cell-based
mV1_648 (ANAP) = mV1_648 (ANAP) (Mus musculus, UniProt Q704Y3, L648X); experiment: as above; assay type: cell-based
mV1 K839A = mV1 K839A (Mus musculus, UniProt Q704Y3, K839A); experiment: Agonist activation, patch clamp, HEK293T; assay type: cell-based; settings: read-out: EC50_Capsaicin
Sequence of mV1 K839A (Q704Y3 whole entry K839A): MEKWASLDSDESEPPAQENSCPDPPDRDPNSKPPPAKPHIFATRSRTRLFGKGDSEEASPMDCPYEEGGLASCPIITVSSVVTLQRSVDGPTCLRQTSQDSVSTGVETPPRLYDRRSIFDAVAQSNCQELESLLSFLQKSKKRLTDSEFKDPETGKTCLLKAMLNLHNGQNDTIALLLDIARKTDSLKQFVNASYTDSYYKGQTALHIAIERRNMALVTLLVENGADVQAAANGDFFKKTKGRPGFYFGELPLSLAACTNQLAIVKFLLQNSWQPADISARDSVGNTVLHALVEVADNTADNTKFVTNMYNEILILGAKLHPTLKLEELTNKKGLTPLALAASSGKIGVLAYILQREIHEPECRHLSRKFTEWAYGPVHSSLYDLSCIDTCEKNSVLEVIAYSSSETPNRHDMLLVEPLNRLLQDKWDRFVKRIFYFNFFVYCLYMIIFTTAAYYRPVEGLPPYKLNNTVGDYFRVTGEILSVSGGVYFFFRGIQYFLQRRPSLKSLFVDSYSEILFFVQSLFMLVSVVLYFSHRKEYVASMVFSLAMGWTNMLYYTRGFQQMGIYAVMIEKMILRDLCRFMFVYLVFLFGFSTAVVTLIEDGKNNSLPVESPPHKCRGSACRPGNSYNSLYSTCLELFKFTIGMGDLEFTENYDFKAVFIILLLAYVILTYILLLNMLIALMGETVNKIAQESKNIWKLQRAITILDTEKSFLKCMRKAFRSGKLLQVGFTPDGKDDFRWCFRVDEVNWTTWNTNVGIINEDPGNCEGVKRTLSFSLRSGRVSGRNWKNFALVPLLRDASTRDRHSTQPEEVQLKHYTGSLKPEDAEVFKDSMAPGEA

mV1 E838A = mV1 E838A (Mus musculus, UniProt Q704Y3, E838A); experiment: Agonist activation, patch clamp, HEK293T; assay type: cell-based; settings: read-out: EC50_Capsaicin
Sequence of mV1 E838A (Q704Y3 whole entry E838A): as the sequence (Q704Y3 whole entry K839A) above, with E838A, A839K counted along it

mV1 CΔ23 (Ser777-Asp799) = mV1 CΔ23 (Ser777-Asp799) (Mus musculus, UniProt Q704Y3, DEL777-799); experiment: Agonist activation, patch clamp, HEK293T; assay type: cell-based; settings: read-out: EC50_Capsaicin
Camel TRPV1 = Camel TRPV1 (Camelus ferus, UniProt A0A8B8UHM1); experiment: Agonist activation, patch clamp, HEK293T; assay type: cell-based; settings: read-out: EC50_Capsaicin
Sequence of Camel TRPV1 (A0A8B8UHM1 1-838): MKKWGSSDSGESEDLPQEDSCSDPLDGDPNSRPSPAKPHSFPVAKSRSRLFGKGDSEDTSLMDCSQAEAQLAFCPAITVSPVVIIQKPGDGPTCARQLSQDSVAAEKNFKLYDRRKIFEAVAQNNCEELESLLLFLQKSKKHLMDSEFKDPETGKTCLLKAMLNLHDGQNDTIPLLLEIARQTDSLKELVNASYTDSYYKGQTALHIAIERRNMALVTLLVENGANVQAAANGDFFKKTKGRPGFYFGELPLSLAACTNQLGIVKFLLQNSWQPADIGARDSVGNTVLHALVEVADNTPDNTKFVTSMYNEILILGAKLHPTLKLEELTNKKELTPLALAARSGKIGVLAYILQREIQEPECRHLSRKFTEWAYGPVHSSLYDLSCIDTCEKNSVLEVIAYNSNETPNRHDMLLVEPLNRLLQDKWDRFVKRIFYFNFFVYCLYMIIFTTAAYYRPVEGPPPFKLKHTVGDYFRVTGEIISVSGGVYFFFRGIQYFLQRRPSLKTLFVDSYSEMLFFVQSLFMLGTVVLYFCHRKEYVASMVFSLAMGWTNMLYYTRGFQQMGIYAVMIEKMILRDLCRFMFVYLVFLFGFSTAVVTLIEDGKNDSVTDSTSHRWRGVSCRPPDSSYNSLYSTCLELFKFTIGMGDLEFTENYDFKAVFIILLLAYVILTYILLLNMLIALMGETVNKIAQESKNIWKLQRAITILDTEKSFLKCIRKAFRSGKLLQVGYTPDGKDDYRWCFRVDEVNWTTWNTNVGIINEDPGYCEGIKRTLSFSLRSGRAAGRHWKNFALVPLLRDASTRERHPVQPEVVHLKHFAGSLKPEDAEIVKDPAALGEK

mV1_579 (ANAP) = mV1_579 (ANAP) (Mus musculus, UniProt Q704Y3, C579X); experiment: Agonist activation of ANAP-incorporated channel, patch clamp; assay type: cell-based
mV1 P836A = mV1 P836A (Mus musculus, UniProt Q704Y3, P836A); experiment: Agonist activation, patch clamp, HEK293T; assay type: cell-based; settings: read-out: EC50_Capsaicin
Sequence of mV1 P836A (Q704Y3 whole entry P836A): as the sequence (Q704Y3 whole entry K839A) above, with P836A, A839K counted along it

mV1 T371G = mV1 T371G (Mus musculus, UniProt Q704Y3, T371G); experiment: Agonist activation, patch clamp, HEK293T; assay type: cell-based; settings: read-out: EC50_Capsaicin
Sequence of mV1 T371G (Q704Y3 whole entry T371G): as the sequence (Q704Y3 whole entry K839A) above, with T371G, A839K counted along it

rTRPV1 = tested on: rTRPV1; design: method as in Sanchez-Moreno et al; settings: 4 μM capsaicin, ref Sanchez-Moreno et al; cited from earlier work
Polar bear TRPV1 = Polar bear TRPV1 (Ursus maritimus, UniProt A0A384CG69); experiment: Agonist activation, patch clamp, HEK293T; assay type: cell-based; settings: read-out: EC50_Capsaicin
Sequence of Polar bear TRPV1 (A0A384CG69 1-841): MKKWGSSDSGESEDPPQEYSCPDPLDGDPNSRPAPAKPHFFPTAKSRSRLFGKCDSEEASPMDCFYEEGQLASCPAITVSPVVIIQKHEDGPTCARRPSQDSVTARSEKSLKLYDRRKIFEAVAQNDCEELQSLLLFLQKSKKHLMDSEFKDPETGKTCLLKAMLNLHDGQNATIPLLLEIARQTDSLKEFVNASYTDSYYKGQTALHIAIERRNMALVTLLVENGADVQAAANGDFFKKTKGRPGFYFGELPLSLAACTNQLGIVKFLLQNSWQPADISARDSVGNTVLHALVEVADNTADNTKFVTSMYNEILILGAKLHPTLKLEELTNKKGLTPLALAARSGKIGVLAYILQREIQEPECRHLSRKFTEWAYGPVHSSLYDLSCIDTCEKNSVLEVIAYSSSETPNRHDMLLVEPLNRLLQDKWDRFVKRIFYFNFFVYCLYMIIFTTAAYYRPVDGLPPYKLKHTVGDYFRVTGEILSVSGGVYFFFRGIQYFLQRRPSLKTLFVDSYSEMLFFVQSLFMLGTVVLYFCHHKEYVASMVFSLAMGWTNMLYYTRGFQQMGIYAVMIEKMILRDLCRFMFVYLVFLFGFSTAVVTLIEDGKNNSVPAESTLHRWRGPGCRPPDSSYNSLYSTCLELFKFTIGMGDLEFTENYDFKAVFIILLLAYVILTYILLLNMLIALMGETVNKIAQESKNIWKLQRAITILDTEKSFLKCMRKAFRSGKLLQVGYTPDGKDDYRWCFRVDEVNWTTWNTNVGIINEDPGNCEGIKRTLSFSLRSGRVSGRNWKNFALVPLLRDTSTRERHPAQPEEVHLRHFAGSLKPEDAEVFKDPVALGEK

mV1 D832A = mV1 D832A (Mus musculus, UniProt Q704Y3, D832A); experiment: Agonist activation, patch clamp, HEK293T; assay type: cell-based; settings: read-out: EC50_Capsaicin
Sequence of mV1 D832A (Q704Y3 whole entry D832A): as the sequence (Q704Y3 whole entry K839A) above, with D832A, A839K counted along it

mV1 K831A = mV1 K831A (Mus musculus, UniProt Q704Y3, K831A); experiment: Agonist activation, patch clamp, HEK293T; assay type: cell-based; settings: read-out: EC50_Capsaicin
Sequence of mV1 K831A (Q704Y3 whole entry K831A): as the sequence (Q704Y3 whole entry K839A) above, with K831A, A839K counted along it

mV1 S116A = mV1 S116A (Mus musculus, UniProt Q704Y3, S117A); experiment: Agonist activation, patch clamp, HEK293T; assay type: cell-based; settings: read-out: EC50_Capsaicin
Sequence of mV1 S116A (Q704Y3 whole entry S117A): as the sequence (Q704Y3 whole entry K839A) above, with S117A, A839K counted along it

pV1_241 (ANAP) = pV1_241 (ANAP) (Ornithorhynchus anatinus, UniProt F7A7B4); experiment: Agonist activation of ANAP-incorporated channel, patch clamp; assay type: cell-based, platypus
Sequence of pV1_241 (ANAP) (F7A7B4 1-842): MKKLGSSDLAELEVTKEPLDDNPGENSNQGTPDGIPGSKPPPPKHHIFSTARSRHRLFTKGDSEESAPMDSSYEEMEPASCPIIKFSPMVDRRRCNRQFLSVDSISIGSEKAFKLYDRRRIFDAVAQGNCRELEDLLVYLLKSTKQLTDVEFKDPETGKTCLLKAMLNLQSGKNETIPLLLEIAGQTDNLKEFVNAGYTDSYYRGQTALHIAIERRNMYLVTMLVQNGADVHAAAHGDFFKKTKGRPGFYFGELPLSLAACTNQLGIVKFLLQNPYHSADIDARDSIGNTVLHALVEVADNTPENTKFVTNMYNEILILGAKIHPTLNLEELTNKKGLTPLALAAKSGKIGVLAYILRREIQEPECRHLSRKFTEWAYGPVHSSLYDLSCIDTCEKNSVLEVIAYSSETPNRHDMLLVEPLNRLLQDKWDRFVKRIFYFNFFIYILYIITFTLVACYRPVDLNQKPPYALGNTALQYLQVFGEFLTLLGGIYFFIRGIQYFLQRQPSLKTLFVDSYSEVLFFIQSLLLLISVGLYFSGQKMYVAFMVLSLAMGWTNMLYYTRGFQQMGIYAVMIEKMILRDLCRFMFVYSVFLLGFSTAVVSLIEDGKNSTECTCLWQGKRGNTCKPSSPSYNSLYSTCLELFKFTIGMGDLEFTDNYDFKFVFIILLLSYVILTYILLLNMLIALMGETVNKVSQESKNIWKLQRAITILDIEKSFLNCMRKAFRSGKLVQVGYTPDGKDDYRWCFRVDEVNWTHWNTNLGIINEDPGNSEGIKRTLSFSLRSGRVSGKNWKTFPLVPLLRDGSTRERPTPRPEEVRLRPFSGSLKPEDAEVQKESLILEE

mV1 CΔ28 (Ala800-Ala827) = mV1 CΔ28 (Ala800-Ala827) (Mus musculus, UniProt Q704Y3, DEL800-827); experiment: Agonist activation, patch clamp, HEK293T; assay type: cell-based; settings: read-out: EC50_Capsaicin
Sequence of mV1 CΔ28 (Ala800-Ala827) (Q704Y3 with tags, fused parts or gaps DEL800-827): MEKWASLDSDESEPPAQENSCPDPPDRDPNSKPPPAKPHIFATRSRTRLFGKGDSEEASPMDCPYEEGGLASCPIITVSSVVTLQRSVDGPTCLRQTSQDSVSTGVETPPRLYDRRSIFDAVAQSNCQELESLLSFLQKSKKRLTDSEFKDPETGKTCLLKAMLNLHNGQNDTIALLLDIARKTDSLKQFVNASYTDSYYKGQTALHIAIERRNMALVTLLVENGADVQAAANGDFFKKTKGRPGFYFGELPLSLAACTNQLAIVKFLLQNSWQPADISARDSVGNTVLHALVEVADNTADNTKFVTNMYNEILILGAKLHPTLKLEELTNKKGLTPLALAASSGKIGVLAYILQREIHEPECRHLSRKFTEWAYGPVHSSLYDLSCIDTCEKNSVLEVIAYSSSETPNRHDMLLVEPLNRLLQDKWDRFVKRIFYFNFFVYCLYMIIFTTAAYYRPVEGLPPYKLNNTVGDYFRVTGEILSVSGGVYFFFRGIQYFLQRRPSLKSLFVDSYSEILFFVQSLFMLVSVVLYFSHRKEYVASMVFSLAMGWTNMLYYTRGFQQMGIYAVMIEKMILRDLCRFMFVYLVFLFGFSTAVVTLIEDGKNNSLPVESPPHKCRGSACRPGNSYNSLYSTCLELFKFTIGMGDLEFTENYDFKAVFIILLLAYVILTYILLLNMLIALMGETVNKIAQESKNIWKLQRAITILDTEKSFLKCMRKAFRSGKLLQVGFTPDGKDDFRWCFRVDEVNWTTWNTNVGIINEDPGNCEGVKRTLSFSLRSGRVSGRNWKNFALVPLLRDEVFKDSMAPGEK

mV1 F830A = mV1 F830A (Mus musculus, UniProt Q704Y3, F830A); experiment: Agonist activation, patch clamp, HEK293T; assay type: cell-based; settings: read-out: EC50_Capsaicin
Sequence of mV1 F830A (Q704Y3 whole entry F830A): as the sequence (Q704Y3 whole entry K839A) above, with F830A, A839K counted along it

pV1_mC chimera = pV1_mC chimera (Ornithorhynchus anatinus, UniProt F7A7B4); experiment: Agonist activation, patch clamp, HEK293T; assay type: cell-based, platypus / mouse; settings: read-out: EC50_Capsaicin
mouse TRPV1 (mV1) = mouse TRPV1 (mV1) (Mus musculus, UniProt Q704Y3); settings: cited from earlier work
Sequence of mouse TRPV1 (mV1) (Q704Y3 whole entry): as the sequence (Q704Y3 whole entry K839A) above, with A839K counted along it
Protocol: The heat activation threshold of pV1, at ~35 °C, is slightly higher than the body core temperature of platypus (32 °C)[17],[18] (Fig. 1b, c), again reminiscent of ot ...

mV1_654 (ANAP) = mV1_654 (ANAP) (Mus musculus, UniProt Q704Y3, Y654X); experiment: Agonist activation of ANAP-incorporated channel, patch clamp; assay type: cell-based

Sequence of mV1 M834A (Q704Y3 whole entry M834A): as the sequence (Q704Y3 whole entry K839A) above, with M834A, A839K counted along it
Sequence of mV1 S833A (Q704Y3 whole entry S833A): as the sequence (Q704Y3 whole entry K839A) above, with S833A, A839K counted along it

## COc1cc(CNC(=O)CCCC/C=C/C(C)C)ccc1O [Capsaicin, capsaicin]
mV1 S833A; mean ± s.e.m., n = 3
  EC50: 344 nM
mV1 S833A; replicate 1
  EC50: 361 nM
mV1 S833A; replicate 2
  EC50: 282 nM
mV1 S833A; replicate 3
  EC50: 389 nM
mV1 M834A; mean ± s.e.m., n = 3
  EC50: 329 ± 23 nM
mV1 M834A; replicate 1
  EC50: 280 nM
mV1 M834A; replicate 2
  EC50: 378 nM
mV1 M834A; replicate 3
  EC50: 329 nM
mV1_630 (ANAP)
  EC50: 299 nM
mV1_630 (ANAP); replicate 1
  EC50_Capsaicin: 325 nM
mV1_630 (ANAP); replicate 2
  EC50_Capsaicin: 289 nM
mV1_630 (ANAP); replicate 3
  EC50_Capsaicin: 310 nM
mV1_630 (ANAP); replicate 4
  EC50_Capsaicin: 272 nM
mV1_648 (ANAP)
  EC50: 296 nM
mV1_648 (ANAP); replicate 1
  EC50_Capsaicin: 301 nM
mV1_648 (ANAP); replicate 2
  EC50_Capsaicin: 286 nM
mV1_648 (ANAP); replicate 3
  EC50_Capsaicin: 312 nM
mV1_648 (ANAP); replicate 5
  EC50_Capsaicin: 289 nM
mV1 K839A; mean ± s.e.m., n = 3
  EC50: 293 nM
mV1 K839A; replicate 1
  EC50: 268 nM
mV1 K839A; replicate 2
  EC50: 292 nM
mV1 E838A; mean ± s.e.m., n = 3
  EC50: 565 nM
mV1 E838A; replicate 1
  EC50: 660 nM
mV1 E838A; replicate 2
  EC50: 597 nM
mV1 E838A; replicate 3
  EC50: 438 nM
mV1 CΔ23 (Ser777-Asp799); mean ± s.e.m., n = 3
  EC50: 398 nM
mV1 CΔ23 (Ser777-Asp799); replicate 1
  EC50: 320 nM
mV1 CΔ23 (Ser777-Asp799); replicate 2
  EC50: 353 nM
mV1 CΔ23 (Ser777-Asp799); replicate 3
  EC50: 521 nM
Camel TRPV1; mean ± s.e.m., n = 5
  EC50: 540 nM
Camel TRPV1; replicate 1
  EC50: 445 nM
Camel TRPV1; replicate 2
  EC50: 443 nM
Camel TRPV1; replicate 3
  EC50: 562 nM
Camel TRPV1; replicate 4
  EC50: 619 nM
Camel TRPV1; replicate 5
  EC50: 631 nM
mV1_579 (ANAP)
  EC50: 293 nM
mV1_579 (ANAP); replicate 2
  EC50_Capsaicin: 297 nM
mV1 P836A; mean ± s.e.m., n = 3
  EC50: 315 nM
mV1 P836A; replicate 1
  EC50: 262 nM
mV1 P836A; replicate 2
  EC50: 364 nM
mV1 T371G; mean ± s.e.m., n = 3
  EC50: 322 nM
mV1 T371G; replicate 1
  EC50: 349 nM
mV1 T371G; replicate 2
  EC50: 332 nM
rTRPV1
  capsaicin sensitivity of heat-desensitized rTRPV1: insensitive
Polar bear TRPV1; mean ± s.e.m., n = 3
  EC50: 313 nM
Polar bear TRPV1; replicate 1
  EC50: 262 nM
Polar bear TRPV1; replicate 2
  EC50: 336 nM
Polar bear TRPV1; replicate 3
  EC50: 341 nM
mV1 D832A; mean ± s.e.m., n = 3
  EC50: 361 nM
mV1 D832A; replicate 1
  EC50: 372 nM
mV1 D832A; replicate 2
  EC50: 282 nM
mV1 D832A; replicate 3
  EC50: 429 nM
mV1 K831A; mean ± s.e.m., n = 3
  EC50: 354 nM
mV1 K831A; replicate 1
  EC50: 417 nM
mV1 K831A; replicate 2
  EC50: 355 nM
mV1 K831A; replicate 3
  EC50: 290 nM
mV1 S116A; mean ± s.e.m., n = 3
  EC50: 186 nM
mV1 S116A; replicate 1
  EC50: 191 nM
mV1 S116A; replicate 2
  EC50: 161 nM
mV1 S116A; replicate 3
  EC50: 206 nM
pV1_241 (ANAP); replicate 3
  EC50_Capsaicin: 288 nM
pV1_241 (ANAP); replicate 5
  EC50_Capsaicin: 322 nM
pV1_241 (ANAP); replicate 6
  EC50_Capsaicin: 342 nM
mV1 CΔ28 (Ala800-Ala827); mean ± s.e.m., n = 3
  EC50: 343 nM
mV1 CΔ28 (Ala800-Ala827); replicate 1
  EC50: 256 nM
mV1 CΔ28 (Ala800-Ala827); replicate 2
  EC50: 365 nM
mV1 CΔ28 (Ala800-Ala827); replicate 3
  EC50: 408 nM
mV1 F830A; mean ± s.e.m., n = 3
  EC50: 338 nM
mV1 F830A; replicate 1
  EC50: 286 nM
mV1 F830A; replicate 2
  EC50: 398 nM
mV1 F830A; replicate 3
  EC50: 330 nM
pV1_mC chimera; mean ± s.e.m., n = 6
  EC50: 310 nM
pV1_mC chimera; replicate 3
  EC50: 388 nM
pV1_mC chimera; replicate 4
  EC50: 257 nM
pV1_mC chimera; replicate 5
  EC50: 354 nM
pV1_mC chimera; replicate 6
  EC50: 300 nM
Mouse TRPV1 (mV1)
  capsaicin sensitivity of heat-desensitized channels: less sensitive
mV1_654 (ANAP)
  EC50: 304 nM
mV1_654 (ANAP); replicate 1
  EC50_Capsaicin: 324 nM
mV1_654 (ANAP); replicate 2
  EC50_Capsaicin: 298 nM
mV1_654 (ANAP); replicate 3
  EC50_Capsaicin: 284 nM
mV1_654 (ANAP); replicate 4
  EC50_Capsaicin: 310 nM
mV1_654 (ANAP); replicate 5
  EC50_Capsaicin: 267 nM
mV1_654 (ANAP); replicate 6
  EC50_Capsaicin: 341 nM

— PMC6513986, “Molecular basis for heat desensitization of TRPV1 ion channels” (Nature Communications, 2019)
